Source: publication PMC9415015, “CK2 Inhibition and Antitumor Activity of 4,7-Dihydro-6-nitroazolo[1,5-a]pyrimidines” (Molecules, 2022)

Tests used:
human recombinant CK2α1 = target: T1, human recombinant CK2α1 (Homo sapiens, UniProt P68400); experiment: CK2 ADP-Glo kinase assay; assay type: biochemical; details: for Effect on CK2 activity in initial screening (in words): initial screening at 50 μM
T1 construct: purchased Promega V4482
Protocol: Kinase activity was determined using the enzyme system CK2α1 (Promega V4482, Madison, WI, USA) and the ADP-Glo^TM kit (Promega V9101, Madison, WI, USA) in white 96-well plates (Nunc U96 Microwell 267350, Denmark). The reaction was carried out using 50 ng/well of N-GST labeled human recombinant CK2α1, 0.1 µg/µL bovine casein as a substrate, 10 μM ATP in 40 mM Tris buffer solution (pH 7.50) containing 20 mM MgCl2, 0.1 mg/mL of BSA, and 50 μM of DTT. Test compounds were added to 1.25% DMSO (final concentration 0.25%) and preincubated with kinase for 10 min. The reaction was carried out for 60 min at 25 °C in a thermostatically controlled PST-60HL shaker (Biosan. […], Latvia). ATP-dependent luminescence was measured at an integration time of 1000 ms using the Infinite M200 PRO microplate reader (Tecan. Austria). The ATP-competitive inhibitor Staurosporin (CAS 62996–74-1, Alfa Aesar J62837, 99+%) was used as a positive control. The experiments were performed in two parallels.

[1] = test system: tumor cells A-172, Rd, and Hos; experiment: MTT test, tumor cell lines together; assay type: cell-based; details: Homo sapiens, A 172, MTT, across A-172, Rd, 50 µM bound holds 'mostly'
Protocol: (§1) The studies were carried out on cultured cells of human glioblastoma (A-172, ATCC CRL 1620), human osteosarcoma (Hos, ATCC CRL 1543), human embryonic rhabdomyosarcoma (Rd, ATCC CRL 136), and human embryonic kidney 293 cells (Hek-293, ATCC CRL 1573) obtained from the Shared research facility “Vertebrate cell culture collection” (Institute of Cytology RAS, Saint-Petersburg, Russia). The cells were cultured using DMEM / F-12 medium containing 10% fetal bovine serum at 37°C, 5% CO2, and 98% humidity. Subculturing was performed using 0.25% trypsin solution when the culture reached ≥90% confluency.
(§2) The compounds were dissolved in DMSO. The solutions were diluted with DMEM/F-12 culture medium with 10% fetal bovine serum to the studied concentrations: 8, 16, 32, 64, 128, 256, 512, and 1024 µM. […] Cisplatin (cPt) was used as a positive control.
(§3) Cells were seeded in 96-well plates at a concentration of 4 × 10^3 cells per well. After 24 h, test compounds were added to the wells in a given concentration range. […] Optical density was measured on a plate spectrophotometer at a wavelength of 570 nm.
(§4) Statistical data processing was carried out in the RStudio program (Version 1.4.1106 © […] RStudio, PBC, Boston, MA, USA) using the R package (version 4.1.2). The cytotoxicity index (IC50) was calculated by plotting dose–response curves using the “drc” package.

A-172 cells = experiment: MTT test, glioblastoma cells; assay type: cell-based, human; details: for Cytotoxicity index IC50 ± SE, A-172: MTT, 72 h incubation
Protocol: as §1, §2
(§5) Cells were seeded in 96-well plates at a concentration of 4 × 10^3 cells per well. After 24 h, test compounds were added to the wells in a given concentration range. Then the cells were incubated for 72 h, after which a solution of MTT (3-(4,5-dimethyl-2-thiazolyl)-2,5-diphenyl-2H-tetrazolium bromide) was added to the cultures at 20 µL (5 mg/mL) to the well. After 2.5 h, the medium was removed from the wells and 200 µL of a mixture of DMSO/i-PrOH 1/1 was added. Optical density was measured on a plate spectrophotometer at a wavelength of 570 nm.
as §4

Hek-293 cells = experiment: MTT test, human embryonic kidney cells; assay type: cell-based; details: 72 h incubation
Protocol: as §1, §2, §5, §4

Hos cells = experiment: MTT test, osteosarcoma cells; assay type: cell-based, human; details: for Cytotoxicity index IC50 ± SE, Hos: MTT, 72 h incubation
Protocol: as §1, §2, §5, §4

Rd cells = experiment: MTT test, embryonic rhabdomyosarcoma cells; assay type: cell-based, human; details: for Cytotoxicity index IC50 ± SE, Rd: MTT, 72 h incubation
Protocol: as §1, §2, §5, §4

[2] = test system: A-172, Rd, Hos and Hek-293 cells; experiment: MTT test, all four cell lines together; assay type: cell-based; details: Homo sapiens, read-out: IC50 in all cases
Protocol: as §1, §2, §3, §4

[3] = Solubility noted during the cytotoxicity study; details: cytotoxicity study limited because of it

T1 sequence (P68400 whole entry): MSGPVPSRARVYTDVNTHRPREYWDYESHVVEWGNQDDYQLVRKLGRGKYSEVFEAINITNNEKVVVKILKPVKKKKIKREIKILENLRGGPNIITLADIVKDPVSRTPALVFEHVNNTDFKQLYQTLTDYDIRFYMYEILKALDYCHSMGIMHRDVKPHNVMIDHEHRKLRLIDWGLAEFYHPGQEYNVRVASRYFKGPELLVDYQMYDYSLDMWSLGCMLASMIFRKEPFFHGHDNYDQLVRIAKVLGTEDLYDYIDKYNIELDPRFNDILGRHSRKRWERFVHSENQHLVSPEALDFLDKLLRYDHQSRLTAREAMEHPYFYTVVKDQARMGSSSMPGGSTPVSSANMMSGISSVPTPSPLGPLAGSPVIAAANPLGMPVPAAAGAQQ

| Compound | Effect on CK2 activity in initial screening (in words) (human recombinant CK2α1) | IC50 [1] [µM] | Cytotoxicity index IC50 ± SE, A-172 (A-172 cells) [µM] | Selectivity ratio SR (A-172) (A-172 cells; normal/cancer cell (Hek-293 vs A-172)) | Cytotoxicity index IC50 ± SE, Hek-293 (Hek-293 cells) [µM] | melting point | Cytotoxicity index IC50 ± SE, Hos (Hos cells) [µM] | Selectivity ratio SR (HOS) (Hos cells; normal/cancer cell (Hek-293 vs Hos)) | Cytotoxicity index IC50 ± SE, Rd (Rd cells) [µM] | Selectivity ratio SR (RD) (Rd cells; normal/cancer cell (Hek-293 vs Rd)) | IC50 [2] [µM] | Solubility (in words) [3] | inhibition at 50 µM (human recombinant CK2α1; 50 μM compound, 10 μM ATP, n.a. = not active, read-out: CK2 Inhibition at 50 μM, m ± SD (%)) [%] |
| --- | --- | --- | --- | --- | --- | --- | --- | --- | --- | --- | --- | --- | --- |
| CC1=C([N+](=O)[O-])C(c2ccccc2)n2nc(C(F)(F)F)nc2N1 (stereo not shown) [Compound 6d, 5-Methyl-6-nitro-7-phenyl-2-trifluoromethyl-4,7-dihydro-1,2,4-triazolo[1,5-a]pyrimidine] | paradoxically enhance CK2 activity | ≤ 50 | 27.49 ± 1.67 | 1.8 | 50.07 ± 4.43 | 233 to 235 °C | 23.31 ± 1.84 | 2.1 | 37.28 ± 3.77 | 1.3 |  |  |  |
| CCC1=C([N+](=O)[O-])C(c2ccc(O)c(OC)c2)n2ncc(C#N)c2N1 (stereo not shown) [Compound 5j, 3-Cyano-5-Ethyl-6-nitro-7-(3ʹ-methoxy-4ʹ-hydroxyphenyl)-4,7-dihydropyrazolo[1,5-a]pyrimidine] |  |  | 566.09 ± 17.12 |  | 581.39 ± 43.90 |  | 522.38 ± 16.16 |  | 673.44 ± 20.70 |  | > 400 |  |  |
| O=[N+]([O-])C1=CNc2ncnn2C1c1ccccc1 (stereo not shown) [Compound 6a, 6-Nitro-7-phenyl-4,7-dihydro-1,2,4-triazolo[1,5-a]pyrimidine] | paradoxically enhance CK2 activity |  | 434.08 ± 18.02 |  | 1131.79 ± 77.86 |  | 542.85 ± 21.45 |  | 448.21 ± 22.53 |  | > 400 |  |  |
| O=[N+]([O-])C1=CNc2ccnn2C1c1ccccc1 (stereo not shown) [Compound 5a, 6-Nitro-7-phenyl-4,7-dihydropyrazolo[1,5-a]pyrimidine] | paradoxically enhance CK2 activity |  |  |  |  |  |  |  |  |  |  | low solubility |  |
| CC1=C([N+](=O)[O-])C(c2ccc([N+](=O)[O-])cc2)n2nccc2N1 (stereo not shown) [Compound 5c, 6-Nitro-5-methyl-7-(4ʹ-nitrophenyl)-4,7-dihydropyrazolo[1,5-a]pyrimidine] | paradoxically enhance CK2 activity |  |  |  |  |  |  |  |  |  |  | low solubility |  |
| CCC1=C([N+](=O)[O-])C(c2ccc(OC)cc2)n2ncc(C#N)c2N1 (stereo not shown) [Compound 5i, 3-Cyano-5-ehtyl-6-Nitro-7-(4ʹ-metoxyphenyl)-4,7-dihydropyrazolo[1,5-a]pyrimidine] |  |  | 145.19 ± 8.96 |  | 69.52 ± 8.69 | 249 °C (dec.) | 88.44 ± 5.85 |  | 105.10 ± 10.70 |  |  |  | 3.66 ± 37.6 |
